{
  "source": "paper PMC12224939",
  "about": "“Trypstatin as a Novel TMPRSS2 Inhibitor with Broad‐Spectrum Efficacy against Corona and Influenza Viruses” (Advanced Science, 2025)",
  "key": {"[1]": {"test_system": "lentiviral pseudoparticles harboring the MERS-CoV spike", "assay": "microbe, parasite or virus in culture", "settings": "Middle East respiratory syndrome-related coronavirus"}, "[2]": {"test_system": "lentiviral pseudoparticles harboring the SARS-CoV-1 spike", "assay": "microbe, parasite or virus in culture", "settings": "Severe acute respiratory syndrome coronavirus, Caco-2, read-out: anti-viral IC50 (±SEM), SARS-CoV-1 pp"}},
  "note": "Where a name gives a salt, the structure may show the parent alone. Read-outs that look alike come from different tables or passages of the source.",
  "data": [
    {"smiles": "CN(C)C(=O)COC(=O)Cc1ccc(OC(=O)c2ccc(NC(=N)N)cc2)cc1", "note": "[Camostat mesylate]", "values": [
      {"measurement": "IC50", "setting": "[1]; Caco-2, 48 h, read-out: IC50, MERS-CoV spike pseudoparticles", "value": 0.05, "unit": "µM"},
      {"measurement": "IC50", "setting": "[1]; Caco-2, read-out: anti-viral IC50 (±SEM), MERS-CoV pp", "value": "0.0499 ± 0.019", "unit": "µM"},
      {"measurement": "IC50", "setting": "[2]", "value": "0.0711 ± 0.008", "unit": "µM"}
    ]}
  ]
}
